Results: PubChem BioAssay (NCI)
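48-hour exposure; five concentrations; linearly interpolated endpoints. At the TGI there is no net growth.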

Legend:
Experiment in all cases: NCI tumour cell line growth inhibition, 48 h
DU-145 prostate = tested on: DU-145 prostate
HCT-116 colon = tested on: HCT-116 colon
HOP-62 NSCLC = tested on: HOP-62 NSCLC
LOX IMVI melanoma = tested on: LOX IMVI melanoma
MDA-MB-435 = tested on: MDA-MB-435
OVCAR-3 ovarian = tested on: OVCAR-3 ovarian
RPMI-8226 leukemia = tested on: RPMI-8226 leukemia
SF-295 CNS = tested on: SF-295 CNS
SK-MEL-2 melanoma = tested on: SK-MEL-2 melanoma
SK-MEL-28 melanoma = tested on: SK-MEL-28 melanoma
SK-MEL-5 melanoma = tested on: SK-MEL-5 melanoma
SW-620 colon = tested on: SW-620 colon

Row | Structure (SMILES) | TGI (DU-145 prostate) [µM] | TGI (HCT-116 colon) [µM] | TGI (HOP-62 NSCLC) [µM] | TGI (LOX IMVI melanoma) [µM] | TGI (MDA-MB-435) [µM] | TGI (OVCAR-3 ovarian) [µM] | TGI (RPMI-8226 leukemia) [µM] | TGI (SF-295 CNS) [µM] | TGI (SK-MEL-2 melanoma) [µM] | TGI (SK-MEL-28 melanoma) [µM] | TGI (SK-MEL-5 melanoma) [µM] | TGI (SW-620 colon) [µM]
1 | O=C(Cc1ccc2ccccc2c1)NCc1ccc(C(=O)NCCc2ccccc2)cc1 | > 100 | > 100 | > 100 | > 100 | > 100 | > 100 | > 100 | > 100 | > 100 | > 100 | > 100 | > 100
2 | COC(=O)Nc1nc2ccc(NS(=O)(=O)c3cccs3)cc2[nH]1 | > 100 | 47.5 | 82.4 | > 100 | 21.4 | 49.2 | > 100 | 70.9 | > 100 | > 100 | > 100 | > 100
3 | CCCCCCN(CCCCCC)CCC(=O)c1ccc2cc(Br)c3ccccc3c2c1 | > 100 | > 100 | > 100 | 98.3 | 74.3 | > 100 | > 100 | > 100 | 92.9 | > 100 | 96.1 | > 100
4 | Nc1ncnc2c1ncn2[C@H]1C=C[C@@H](NO)C1 | > 100 | > 100 | > 100 | > 100 | > 100 | > 100 | > 100 | > 100 | > 100 | > 100 | > 100 | > 100
5 | CC(=O)Nc1nc(C)c(S(=O)(=O)NC(=O)NC2NC(=O)NC2=O)s1 (centres undefined) | > 100 | > 100 | > 100 | > 100 | > 100 | > 100 | > 100 | > 100 | > 100 | > 100 | > 100 | > 100
6 | Nc1nc(Cl)cc(NCC2(CCO)CCC2)n1 | > 100 | > 100 | > 100 | > 100 | > 100 | > 100 | > 100 | > 10 | > 100 | > 100 | > 100 | > 100
7 | CN(O)C(=O)CCC(NC(=O)CCC(N)C(=O)O)C(=O)NCC(=O)O (centres undefined) | > 100 | > 100 | > 100 | > 100 | > 100 | > 100 | > 100 | > 100 | > 100 | > 100 | > 100 | > 100
8 | Cn1c(-c2ccco2)ccc1-c1ccc(C=O)o1 | > 100 | 53.1 | > 100 | > 100 | > 100 | > 100 | > 100 | > 100 | > 100 | > 100 | > 100 | > 100
9 | COc1ccc(CCN2CCN(CCCc3ccccc3)CC2)cc1 | > 100 | > 100 | > 100 | > 100 | > 100 | > 100 | > 100 | > 100 | > 100 | > 100 | 56.9 | > 100
10 | COc1cc(C2C=C(c3ccccc3)Oc3cc4c(cc32)OCO4)cc(OC)c1OC (centres undefined) | 4.58 | 9.44 | > 100 | > 54.8 | > 100 | > 100 | > 100 | > 16.9 | > 81.1 | > 100 | > 47.8 | > 100
11 | CCOC(=O)C(NC(=O)c1cccc(Cl)c1)(Nc1ccc(S(=O)(=O)Nc2cc(C)on2)cc1)C(F)(F)F (centres undefined) | > 100 | > 100 | > 100 | > 100 | > 100 | > 100 | > 100 | 33.4 | > 100 | > 100 | > 100 | > 100
12 | NC1=Nc2ccccc2Sc2nncn21 | > 100 | > 100 | > 100 | > 100 | > 100 | > 100 | > 100 | > 100 | > 100 | > 100 | > 100 | > 100
